Each block holds one compound with its values, some of them ahead of it.
Tests used:
[1] = test system: Mast/stem cell growth factor receptor Kit (Homo sapiens), P10721 [A829P]; settings: at 10 µM
[2] = molecular target: Wee1-like protein kinase 2 (Homo sapiens) (UniProt P0C1S8); assay: Selectivity interaction (Ambit KINOMEscan and KiNATiv profiling in Jurkat cells) EUB0000090b WEE2; type: cell-based; settings: at 1 µM
[3] = molecular target: T1, Dual specificity mitogen-activated protein kinase kinase 6 (Homo sapiens) (UniProt P52564); assay: Selectivity interaction (ActivX KiNativ screen (kinase selectivity in THP-1 cell lysates)) EUB0000639a MAP2K6; type: subcellular; settings: lysate, at 5 µM
T1 sequence (whole entry): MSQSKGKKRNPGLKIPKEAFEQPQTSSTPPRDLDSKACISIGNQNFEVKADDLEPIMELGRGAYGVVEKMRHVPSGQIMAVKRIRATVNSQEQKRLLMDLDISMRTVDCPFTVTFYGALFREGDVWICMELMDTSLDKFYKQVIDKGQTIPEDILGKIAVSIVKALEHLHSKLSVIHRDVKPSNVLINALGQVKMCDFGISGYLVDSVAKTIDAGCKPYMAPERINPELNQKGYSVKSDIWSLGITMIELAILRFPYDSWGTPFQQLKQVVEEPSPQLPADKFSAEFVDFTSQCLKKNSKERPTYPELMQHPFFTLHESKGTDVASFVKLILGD

[4] = molecular target: T2, SNF-related serine/threonine-protein kinase (Homo sapiens) (UniProt Q9NRH2); assay: Selectivity interaction (KinomeScan (DiscoverX)) EUB0000092b SNRK; settings: at 10 µM
T2 sequence (whole entry): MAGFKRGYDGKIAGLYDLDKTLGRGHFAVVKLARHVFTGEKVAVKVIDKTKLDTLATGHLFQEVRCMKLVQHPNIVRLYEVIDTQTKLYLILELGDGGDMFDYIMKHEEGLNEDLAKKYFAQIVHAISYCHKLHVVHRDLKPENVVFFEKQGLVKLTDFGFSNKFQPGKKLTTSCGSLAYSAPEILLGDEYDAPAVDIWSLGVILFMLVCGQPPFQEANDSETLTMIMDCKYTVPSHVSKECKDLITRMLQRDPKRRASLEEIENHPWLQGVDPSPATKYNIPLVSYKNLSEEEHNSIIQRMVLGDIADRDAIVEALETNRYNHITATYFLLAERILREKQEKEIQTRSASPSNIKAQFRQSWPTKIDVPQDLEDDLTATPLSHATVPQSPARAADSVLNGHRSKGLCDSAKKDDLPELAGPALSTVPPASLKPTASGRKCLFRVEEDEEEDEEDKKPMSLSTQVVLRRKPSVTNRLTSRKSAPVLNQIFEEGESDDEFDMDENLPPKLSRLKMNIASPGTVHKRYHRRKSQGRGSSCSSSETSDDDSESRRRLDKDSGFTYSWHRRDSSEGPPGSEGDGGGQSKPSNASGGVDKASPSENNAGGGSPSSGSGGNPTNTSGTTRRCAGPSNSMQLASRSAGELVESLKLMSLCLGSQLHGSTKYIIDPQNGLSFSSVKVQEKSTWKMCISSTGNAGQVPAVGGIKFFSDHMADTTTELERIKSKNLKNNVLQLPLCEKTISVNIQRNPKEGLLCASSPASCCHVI

[5] = molecular target: T3, Cyclin-dependent kinase 11A (Homo sapiens) (UniProt Q9UQ88); assay: Selectivity interaction (KinomeScan (DiscoverX)) EUB0000655a CDK11A; settings: at 10 µM
T3 sequence (whole entry): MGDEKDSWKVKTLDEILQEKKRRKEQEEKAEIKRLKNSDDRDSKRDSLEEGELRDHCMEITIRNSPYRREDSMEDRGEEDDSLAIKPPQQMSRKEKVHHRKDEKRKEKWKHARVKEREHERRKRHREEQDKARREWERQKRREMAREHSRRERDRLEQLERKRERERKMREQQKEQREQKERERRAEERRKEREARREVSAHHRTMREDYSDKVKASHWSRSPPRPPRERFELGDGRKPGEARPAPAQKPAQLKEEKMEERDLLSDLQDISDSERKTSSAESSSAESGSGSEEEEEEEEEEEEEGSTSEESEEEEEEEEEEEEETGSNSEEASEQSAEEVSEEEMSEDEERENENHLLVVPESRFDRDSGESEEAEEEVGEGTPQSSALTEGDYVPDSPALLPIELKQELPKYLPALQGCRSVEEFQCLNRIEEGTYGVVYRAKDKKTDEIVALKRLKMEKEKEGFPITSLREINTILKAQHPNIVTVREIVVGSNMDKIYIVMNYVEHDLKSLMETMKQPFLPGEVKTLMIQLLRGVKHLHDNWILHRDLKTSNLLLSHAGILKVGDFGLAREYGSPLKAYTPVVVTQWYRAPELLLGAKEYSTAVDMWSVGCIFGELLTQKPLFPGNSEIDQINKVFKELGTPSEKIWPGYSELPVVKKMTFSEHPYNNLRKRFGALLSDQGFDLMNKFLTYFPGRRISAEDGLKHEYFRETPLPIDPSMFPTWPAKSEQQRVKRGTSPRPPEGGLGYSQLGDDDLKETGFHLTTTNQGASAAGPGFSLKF

[6] = molecular target: Wee1-like protein kinase 2 (Homo sapiens) (UniProt P0C1S8); assay: Selectivity interaction (KinomeScan (DiscoverX)) EUB0000607a WEE2; settings: at 10 µM

Sequence of Wee1-like protein kinase 2 (Homo sapiens) (P0C1S8 whole entry, looked up): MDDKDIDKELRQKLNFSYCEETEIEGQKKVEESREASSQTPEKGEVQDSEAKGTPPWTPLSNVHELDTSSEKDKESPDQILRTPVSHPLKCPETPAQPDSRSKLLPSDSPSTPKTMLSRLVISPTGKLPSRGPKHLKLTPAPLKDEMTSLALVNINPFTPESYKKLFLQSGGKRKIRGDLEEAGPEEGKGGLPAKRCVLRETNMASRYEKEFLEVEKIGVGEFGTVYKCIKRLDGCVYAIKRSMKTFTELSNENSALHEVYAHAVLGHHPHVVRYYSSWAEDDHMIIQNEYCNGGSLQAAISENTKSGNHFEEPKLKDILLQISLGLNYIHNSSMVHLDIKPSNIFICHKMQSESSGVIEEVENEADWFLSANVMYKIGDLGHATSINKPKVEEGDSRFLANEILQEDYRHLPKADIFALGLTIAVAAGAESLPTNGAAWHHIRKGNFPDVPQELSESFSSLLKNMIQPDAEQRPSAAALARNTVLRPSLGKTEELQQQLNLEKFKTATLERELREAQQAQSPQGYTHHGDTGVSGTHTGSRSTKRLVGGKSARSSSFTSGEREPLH
Sequence of Mast/stem cell growth factor receptor Kit (Homo sapiens), P10721 [A829P] (P10721 whole entry A829P): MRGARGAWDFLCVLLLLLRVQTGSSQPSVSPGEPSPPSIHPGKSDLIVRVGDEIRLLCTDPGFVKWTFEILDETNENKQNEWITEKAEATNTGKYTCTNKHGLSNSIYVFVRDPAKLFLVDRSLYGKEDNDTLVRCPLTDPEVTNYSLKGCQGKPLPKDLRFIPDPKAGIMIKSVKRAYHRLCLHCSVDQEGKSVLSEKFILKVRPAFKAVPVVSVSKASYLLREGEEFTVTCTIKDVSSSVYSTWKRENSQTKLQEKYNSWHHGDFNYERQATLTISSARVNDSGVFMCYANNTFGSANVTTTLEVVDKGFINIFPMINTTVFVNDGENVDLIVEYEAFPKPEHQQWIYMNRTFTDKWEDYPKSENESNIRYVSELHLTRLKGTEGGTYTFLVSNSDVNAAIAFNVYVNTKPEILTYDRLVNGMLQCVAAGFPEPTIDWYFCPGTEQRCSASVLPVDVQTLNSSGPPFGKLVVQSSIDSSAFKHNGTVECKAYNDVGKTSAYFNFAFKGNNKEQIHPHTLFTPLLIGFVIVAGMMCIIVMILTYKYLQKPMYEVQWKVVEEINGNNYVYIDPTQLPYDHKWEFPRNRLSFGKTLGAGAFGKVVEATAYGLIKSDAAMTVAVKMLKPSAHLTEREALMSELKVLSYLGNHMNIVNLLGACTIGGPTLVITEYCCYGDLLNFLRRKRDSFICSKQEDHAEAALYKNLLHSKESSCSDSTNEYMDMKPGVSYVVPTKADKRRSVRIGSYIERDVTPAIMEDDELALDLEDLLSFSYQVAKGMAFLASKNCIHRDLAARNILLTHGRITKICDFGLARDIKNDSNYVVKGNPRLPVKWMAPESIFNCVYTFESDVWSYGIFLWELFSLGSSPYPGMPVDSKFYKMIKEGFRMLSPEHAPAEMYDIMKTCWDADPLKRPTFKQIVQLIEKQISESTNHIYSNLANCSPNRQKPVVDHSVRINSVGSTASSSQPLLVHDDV

Structure (SMILES): Cc1cc([C@@H](C)Nc2ccccc2C(=O)O)c2nc(N3CCOCC3)cc(=O)n2c1 [AZD-6482]
- % of control [1]: 100%

Structure (SMILES): CN(C)C/C=C/C(=O)Nc1ccc(C(=O)N2CCCC(Nc3ncc(Cl)c(-c4c[nH]c5ccccc45)n3)C2)cc1 (stereo unspecified)
- % of control [2]: 97%

- % of inhibition [3]: 55.8%
Structure (SMILES): CC[C@@H]1[C@H](F)C(=O)N[C@@H]1COc1nccc2cc(C(N)=O)c(OC)cc12 [ZIMLOVISERTIB]

Structure (SMILES): CCC(=O)N1CCN(c2ccc(-n3c(=O)ccc4cnc5ccc(-c6cnc7ccccc7c6)cc5c43)cc2C(F)(F)F)CC1
- % of control [4]: 60%

Structure (SMILES): CN(C)CCOc1ccc(-c2nc(-c3ccncc3)c(-c3ccc4c(c3)CC/C4=N\O)[nH]2)cc1
- % of control [5]: 98%

Structure (SMILES): CNC(=O)Nc1ccc(-c2nc(N3CC4CCC(C3)O4)c3cnn(C4CCC5(CC4)OCCO5)c3n2)cc1
- % of control [6]: 100%

Reference: ChEMBL document CHEMBL5465560, “Selectivity Literature for EUbOPEN Chemogenomic Library” (2024)
